Legend:
human AML = assay: in vivo mouse model of human AML (tumour growth); settings: oral administration, procedure of Example 236, FIG. 1
MLLT1 = biological target: T1, MLLT1 (Homo sapiens, UniProt Q03111); assay: MLLT1 degradation assay in MV4-11 cells (JESS chemiluminescent detection), three concentrations, 24 h; type: cell-based; settings: with respect to DMSO control
T1 construct: host or cells: MV4-11
T1 sequence (Q03111 1-559): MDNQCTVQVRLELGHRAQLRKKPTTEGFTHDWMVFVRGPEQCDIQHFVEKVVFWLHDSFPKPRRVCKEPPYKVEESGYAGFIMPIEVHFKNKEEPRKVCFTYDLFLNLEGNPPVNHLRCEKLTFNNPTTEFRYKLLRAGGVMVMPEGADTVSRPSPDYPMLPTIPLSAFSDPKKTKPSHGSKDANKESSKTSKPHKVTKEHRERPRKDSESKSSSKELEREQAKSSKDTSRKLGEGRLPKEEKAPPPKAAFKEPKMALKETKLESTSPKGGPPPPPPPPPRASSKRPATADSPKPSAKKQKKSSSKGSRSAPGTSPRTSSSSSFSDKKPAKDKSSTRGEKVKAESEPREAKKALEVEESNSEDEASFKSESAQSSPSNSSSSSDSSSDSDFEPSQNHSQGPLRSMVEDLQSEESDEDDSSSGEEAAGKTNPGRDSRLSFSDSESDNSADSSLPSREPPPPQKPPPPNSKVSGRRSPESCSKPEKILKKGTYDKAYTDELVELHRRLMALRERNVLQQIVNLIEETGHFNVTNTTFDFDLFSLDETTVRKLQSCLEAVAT
Outline: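 MV4-11 cells treated 24 h at 37° C, 5% CO2 with 1000, 100 and 10 nM compound (0.1% DMSO final). MLLT1 quantified by automated capillary chemiluminescent immunodetection; band peak area expressed as % degradation relative to DMSO control.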

MLLT3 = biological target: T2, MLLT3 (Mus musculus, UniProt A2AM29); assay: MLLT3 degradation assay in NIH/3T3 cells (JESS), dose response, 5 h; type: cell-based
T2 construct: host or cells: NIH/3T3
T2 sequence (A2AM29 1-569): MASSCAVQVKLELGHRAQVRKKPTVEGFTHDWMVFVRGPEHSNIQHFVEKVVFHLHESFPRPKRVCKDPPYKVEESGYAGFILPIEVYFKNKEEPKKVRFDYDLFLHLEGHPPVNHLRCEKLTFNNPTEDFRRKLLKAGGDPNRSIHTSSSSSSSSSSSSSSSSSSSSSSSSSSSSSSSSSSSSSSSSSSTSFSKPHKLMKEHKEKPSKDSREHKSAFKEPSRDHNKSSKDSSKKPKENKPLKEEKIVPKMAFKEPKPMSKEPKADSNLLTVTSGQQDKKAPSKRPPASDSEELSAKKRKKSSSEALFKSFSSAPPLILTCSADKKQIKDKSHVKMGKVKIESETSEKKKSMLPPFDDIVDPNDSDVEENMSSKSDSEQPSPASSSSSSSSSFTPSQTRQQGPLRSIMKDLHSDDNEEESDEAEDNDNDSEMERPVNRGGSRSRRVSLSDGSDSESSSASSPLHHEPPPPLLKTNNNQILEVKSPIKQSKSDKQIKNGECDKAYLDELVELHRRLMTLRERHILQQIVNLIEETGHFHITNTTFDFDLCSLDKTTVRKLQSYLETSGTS
Experimental: MLLT3 degradation efficacy of compounds was tested in an automated chemiluminescent detection system (JESS, Cat #004-650). NIH/3T3 (#CRL-1658, ATCC) were seeded at a density of 0.5 million cells/well in a cell culture treated 6-well cell culture plate in 2 mL of complete medium (DMEM+10% FBS+IX Penicillin-Streptomycin) and incubated at 37° C., 5% CO2. The next day, 10 mM DMSO stocks were prepared, and cells were treated with eight concentrations of test compounds, starting from 100 nM, 5-fold dilution, at a final DMSO concentration of 0.1% and incubated for 5 h at 37° C., 5% CO2. Post incubation, cells were washed with HBSS and lysed in 70 μL of RIPA buffer supplemented with Protease inhibitors (sc-24948; Santa Cruz). Later, protein estimation was done using BCA protein assay kit (23228; Pierce). 4 μg protein lysate (4 μL of 1 μg/μL lysate) was loaded into each well of the JESS cartridge (SM-W004; Bio-techne) and the JESS run was performed using 1:200 dilution of anti-mouse MLLT3 antibody (#47577; CST) and 1:800 dilution of anti-human GAPDH antibody (2118; Cell signaling technology) with anti-rabbit secondary detection module (DM-001; Bio-Techne). Post run, data was analysed using “Compass for SW” software for chemiluminescent detection. Peak fit was done using “dropped lines” method. […]

Q: What does the source list for `CN1CCC[C@@H]1c1cc2cnc(NC(=O)c3ccc(CCCC#Cc4cccc5c4CN(C4CCC(=O)NC4=O)C5=O)cc3)cc2[nH]1` (stereo partly drawn) [Example 55, 4-(5-(2-(2,6-dioxopiperidin-3-yl)-1-oxoisoindolin-4-yl)pent-4-yn-1-yl)-N-(2-((R)-1-methylpyrrolidin-2-yl)-1H-pyrrolo[3,2-c]pyridin-6-yl)benzamide]?
A: tumour growth (human AML): reduction in tumour growth; MLLT1% Degradation @ 0.01 μM (MLLT1; 0.01 μM): A (Category A: A ≥ 75% degradation); MLLT1% Degradation @ 0.1 μM (MLLT1; 0.1 μM): A (Category A: A ≥ 75% degradation); MLLT1% Degradation @ 1 μM (MLLT1; 1 μM): A (Category A: A ≥ 75% degradation); DC50 (MLLT3): 0.8 nM; Dmax (MLLT3; NIH3T3, maximum % degradation observed): 92%

Reference: patent US20260191968A1, “PROTAC DEGRADERS OF MLLT1 AND/OR MLLT3” (DARK BLUE THERAPEUTICS LTD, priority 2024, published 2026)
